From patent US5356781A, “Zymogen activation peptides (ZAP) in the diagnosis of disease” (Bioscience International, Inc., priority 1986, dated 1994)
One block for each molecule: values may come before it. Where no end group is shown, it is not given here.

Columns and labels:
[1] = tested on: affinity-purified Ca^2+ -dependent antibodies present in sera from rabbit 1 (anti-D4 K); assay: Solution phase competitive immunoradiometric assay: competition of binding to 125I-YD4 K, precipitation with second antibody; settings: Ca2+-dependent antibodies from rabbit 1; FIG. 3; read-out: IC50, displacement of binding to 125I-YD4 K
Procedure: The relative affinities of affinity-purified Ca^2+ -dependent antibodies present in sera from rabbit 1 for various peptides was examined by determining competition of binding to ^125 I-YD4 K, measured by precipitation with a second antibody, donkey anti-rabbit. […] Some binding to Asp2 Lys was seen.
100 μl of a 1:250 dilution of anti-D4 K antiserum or a dilution of affinity-purified anti-D4 K antibodies in 50mM Tris-Hcl, 20mM CaCl2, 0.1% (w/v) BSA, pH 7.4 (RIA buffer) were added to 100 μl of ^125 I-YD4 K, (10,000 cpm) in RIA buffer containing 0.2% (v/v) normal rabbit serum in polystyrene tubes. Then 100 μl of solutions containing various concentrations of standard peptides or unknown plasma samples diluted in RIA-buffer were added, followed by 50 μl of donkey anti-rabbit Ig serum (Wellcome Biotechnology) diluted 1:10 with RIA-buffer with 0.2% normal rabbit serum. The mixtures were incubated 18 hours at 4° C., then the tubes were centrifuged at 3,000 rpm for 45 minutes at 4° C., and the supernatants aspirated. The radioactivity in the precipitates was determined in an LKB rack-gamma counter.

[2] = type: in vitro ADME
Procedure: The stability of APFD4 K and D4 K were examined by incubation with activated pancreatic juice, and the chemical identity of the product examined by high-voltage paper electrophoresis at pH 6.5. […] In three separate experiments, duplicate 65 to 75 mg portions of fresh dog pancreas were placed in modified Bank's medium and incubated in the presence or absence of 100 units enterokinase (Sigma Chem. Co. […]) at 37° C. for 4 hours and 22° C. for a further 20 hours. Duplicate 100 ul samples of culture medium supernatant were taken at intervals, diluted 2:1 with RIA buffer, boiled for 10 minutes and centrifuged. Supernatants were then stored at -20° C. prior to assay for D4 K peptides.

in vivo = settings: rat, iv
Procedure: To determine the fate of circulating peptide, D4 K (0.28 ml, 1 mg/ml) was injected into the left femoral vein of rats under phenobarbital anaesthesia. Blood samples (0.5 ml) were collected every 15 minutes for 2 hours, and subjected to immunoassay.

[3] = Incubation in human serum (immunoreactivity; Sephadex G-100 chromatography); type: in vitro ADME
Procedure: Immunoreactive D4 K was unaltered by incubation with undenatured human serum at 37° C. for 6 hours and 4° C. for 48 hours.

anti-D4 K antibodies = assay: Displacement of 125I-YD4 K binding by trypsinogen with and without enteropeptidase activation; design: species or system rabbit
Procedure: Of great importance to the general principle of the PAP assay of which this is an example, and for the application of these specific anti-D4 K antibodies to the diagnosis of pancreatic disease was the finding that anti-D4 K antibodies were […] on the peptide, and were not displaced by trypsinogen (where the peptide is C-terminally bound to the protein) in concentrations of the zymogen of up to 100 μg/ml. Upon incubation of trypsinogen with enteropeptidase, however, released D4 K-containing activation peptides actively displaced the binding of synthetic ^125 I-YD4 K giving 50% displacement after activation of a 2 μg/ml solution of trypsinogen (FIG. 4). Trypsinogen in native dog pancreatic juice was also activated by enteropeptidase (FIG. 4) releasing immunoreactive D4 K peptides, giving 50% displacement in competitive solution-phase immunoassay after activation of 10^-8 L pancreatic juice. The novel D4 K-specific antibodies described here therefore also provide a new sensitive assay for enteropeptidase and trypsinogen applicable to fluids with endogenous trypsin inhibitors. […]

IC50 [1]: > 100 µM
Molecule: N[C@@H](CC(=O)O)C(=O)O [Asp, Aspartic Acid]

IC50 [1]: > 100 µM
Molecule: NCCCC[C@H](N)C(=O)O [Lys, Lysine]

Molecule: APFDDDDK [APFD4 K, Ala-Pro-Phe-Asp-Asp-Asp-Asp-Lys]
stability in activated pancreatic juice (identity of product) [2]: rapidly converted to free Ala, Pro and Phe and D4 K

half-life (in vivo): ~15 min
stability of immunoreactive peptide in undenatured human serum ([3]; 4° C. for 48 hours): unaltered
stability of immunoreactive peptide in undenatured human serum ([3]; 37° C. for 6 hours): unaltered
Molecule: DDDDK [D4 K, Asp-Asp-Asp-Asp-Lys]

Molecule: YDDDDK [YD4 K]
complexing with a serum component ([3]; Sephadex G-100 chromatography after incubation in human serum): did not complex with a serum component

IC50 [1]: > 100 µM
Molecule: poly-Asp

concentration of solution giving 50% displacement of 125I-YD4 K (anti-D4 K antibodies; after incubation of trypsinogen with enteropeptidase, FIG. 4): 2 µg/mL
concentration up to which antibodies were not displaced (anti-D4 K antibodies; trypsinogen without enteropeptidase activation): > 100 µg/mL
B1: trypsinogen: zymogen in which the D4 K peptide is C-terminally bound to the protein (protein, UniProt P00760 18-246, looked up)
pro-form: VDDDDKIVGGYTCGANTVPYQVSLNSGYHFCGGSLINSQWVVSAAHCYKSGIQVRLGEDNINVVEGNEQFISASKSIVHPSYNSNTLNNDIMLIKLKSAASLNSRVASISLPTSCASAGTQCLISGWGNTKSSGTSYPDVLKCLKAPILSDSSCKSAYPGQITSNMFCAGYLEGGKDSCQGDSGGPVVCSGKLQGIVSWGSGCAQKNKPGVYTKVCNYVSWIKQTIASN
modifications: pro-form
